Columns and labels:
avidin = settings: compared with avidin-biotin; cited from earlier work
E. coli DNA polymerase I = E. coli DNA polymerase I (Escherichia coli, UniProt P00582); assay: nick-translation reaction, incorporation of [32P]dCTP into 145-bp DNA; assay type: biochemical; settings: for rate of nick-translation reaction relative to TTP: 20 μM nucleotide, relative to equal concentration of TTP
Protocol: Nick-Translation Reactions. Nucleosome length DNA fragments [145 base pairs (bp)]were purified from monomer nucleosomes prepared by micrococcal nuclease digestion of chicken erythrocyte nuclei followed by fractionation on an agarose A-5m column (2). Four microgram aliquots of 145-bp DNA fragments in 0.1 ml of 50 mM Tris-HCl, pH 7.5/5 mM MgCl2 /50 μg of bovine serum albumin per ml were nicktranslated (3) in the presence of 20 μM dATP and dGTP, 20 μM [^32 P]dCTP (2-5 μCi/nmol; 1 Ci =37 GBq), and either dTTP, Bio-4-dUTP, or Bio-SS-dUTP as indicated. 2-Mercaptoethanol was eliminated from the nick-translation buffer to preserve the Bio-SS-dUTP. DNase I (0.01 ng per 0.1 ml of reaction mixture) was added to the reaction, which was then incubated for 5 min at 15° C. prior to the addition of E. coli DNA polymerase I (4 units per 0.1 ml of reaction mixture).
Bio-SS-dUTP Is a Substrate for E. coli DNA Polymerase. To determine whether Bio-SS-dUTP could serve as a substrate for E. coli DNA polymerase I, its incorporation into DNA in a nick-translation reaction was measured. The incorporation of [^32 P ]dCTP into purified nucleosome-length DNA fragments (145 bp) in the presence of 20 μM dATP, dGTP, dCTP, and either the normal nucleotide, TTP, or one of three biotinylated nucleotide analogs was measured. Bio-SS-dUTP was capable of supporting the nick-translation reaction at 35%-40% the rate observed with an equal concentration of TTP. […] If no TTP is present with the biotinylated nucleotides in the nick-translation reaction, the newly synthesized DNA is very heavily biotinylated. To reduce this level of modification, the nick-translation reactions can be performed in the presence of μM/10TTP/10 μM Bio-SS-dUTP.

[1] = HPLC of Bio-SS-dUTP in presence of 2-mercaptoethanol (disulfide cleavage); assay type: physicochemical; settings: 5 mM 2-mercaptoethanol immediately before HPLC
Protocol: It was not necessary to further purify the AA-dUTP by HPLC at this stage in the synthesis. Instead, 2.0 μmol of AA-dUTP in 200 μl of 0.1 M sodium borate (pH 8.5) was added directly to 2.0 μmol of sulfo-NHS-SS-biotin. The reaction was allowed to proceed at room temperature for 1 to 2 hr. The resulting Bio-SS-dUTP was purified by ion-pair reversed-phase HPLC using a Bio-Sil ODS-5S column (250×4 mm; Bio-Rad). Aliquots of the reaction (100 μl) were adjusted to 50 mM Et3 NHCO3 (pH 7.5) and 10% acetonitrile, diluted to 500 μl with the same buffer, and applied to the column at a flow rate of 0.5 ml/min (1600 psi). Bio-SS-dUTP was eluted isocratically with 50 mM Et3 NHCO3 (pH 7.5) and 10% acetonitrile. Column fractions containing Bio-SS-dUTP were pooled, rotary evaporated, resuspended in 10 mM Tris HCl (pH 7.5); and stored at -80° C. From 2.0 μmol of AA-dUTP, 1.0-1.6 μmol of Bio-SS-dUTP can be obtained by this procedure.
An identical aliquot of the Bio-SS-dUTP reaction was supplemented with 2-mercaptoethanol to a final concentration of 5 mM immediately prior to its application and chromatography on HPLC. […] Instead, there was a corresponding increase in the material eluting from the column with the solvent breakthrough (3.3 min). […]

Chain of E. coli DNA polymerase I (P00582 whole entry, the tested form may be a part): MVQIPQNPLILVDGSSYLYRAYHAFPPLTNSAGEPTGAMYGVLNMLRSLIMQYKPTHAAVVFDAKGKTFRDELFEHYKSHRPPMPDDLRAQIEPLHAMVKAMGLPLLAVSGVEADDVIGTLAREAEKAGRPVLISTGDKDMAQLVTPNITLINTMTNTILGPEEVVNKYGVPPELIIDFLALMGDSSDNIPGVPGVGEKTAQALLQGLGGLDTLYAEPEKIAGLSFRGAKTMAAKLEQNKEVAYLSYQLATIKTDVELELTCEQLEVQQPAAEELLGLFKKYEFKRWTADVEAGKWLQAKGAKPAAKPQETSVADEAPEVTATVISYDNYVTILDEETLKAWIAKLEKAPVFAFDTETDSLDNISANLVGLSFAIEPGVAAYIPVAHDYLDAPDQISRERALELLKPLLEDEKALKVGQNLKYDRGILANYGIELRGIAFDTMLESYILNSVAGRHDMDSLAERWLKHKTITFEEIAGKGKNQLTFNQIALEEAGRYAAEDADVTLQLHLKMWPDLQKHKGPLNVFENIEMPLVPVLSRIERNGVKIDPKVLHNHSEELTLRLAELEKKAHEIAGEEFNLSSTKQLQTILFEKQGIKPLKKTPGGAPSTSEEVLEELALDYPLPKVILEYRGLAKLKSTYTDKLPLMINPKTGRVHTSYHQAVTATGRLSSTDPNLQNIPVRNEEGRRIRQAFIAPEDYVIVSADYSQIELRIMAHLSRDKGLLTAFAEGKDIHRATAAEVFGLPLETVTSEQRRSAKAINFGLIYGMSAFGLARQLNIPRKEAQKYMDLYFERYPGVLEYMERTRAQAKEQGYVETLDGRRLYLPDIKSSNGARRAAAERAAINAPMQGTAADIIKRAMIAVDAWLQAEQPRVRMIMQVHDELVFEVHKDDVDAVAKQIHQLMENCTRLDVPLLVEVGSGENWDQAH

Compound: N=C1N[C@H]2[C@H](CS[C@H]2CCCCC(=O)O)N1 [2-iminobiotin]
- strength of avidin-iminobiotin interaction (avidin): not nearly as strong as that of avidin-biotin

Compound: O=C(CCCC[C@@H]1SC[C@@H]2NC(=O)N[C@@H]21)NCC=Cc1cn([C@H]2C[C@H](O)[C@@H](COP(=O)(O)OP(=O)(O)OP(=O)(O)O)O2)c(=O)[nH]c1=O [Bio-4-dUTP, reference compound]
- rate of nick-translation reaction relative to TTP (E. coli DNA polymerase I): 60%

Compound: O=C(CCSSCCNC(=O)CCCC[C@@H]1SC[C@@H]2NC(=O)N[C@@H]21)NCC=Cc1cn([C@H]2C[C@H](O)[C@@H](COP(=O)(O)OP(=O)(O)OP(=O)(O)O)O2)c(=O)[nH]c1=O [Bio-SS-dUTP]
- rate of nick-translation reaction in mixture with TTP (E. coli DNA polymerase I; 10 μM TTP/10 μM Bio-SS-dUTP versus 20 μM TTP alone): only slightly slower
- rate of nick-translation reaction relative to TTP (E. coli DNA polymerase I): 35%-40%
- residues incorporated per nucleosome-length fragment (E. coli DNA polymerase I; nick-translated with equal concentrations of TTP and Bio-SS-dUTP): 2-5 residues per nucleosome-length fragment
- substrate for E. coli DNA polymerase (E. coli DNA polymerase I; nick-translation): good substrate
- intact compound after 2-mercaptoethanol (HPLC) [1]: no UV-absorbing material eluted from the column with the retention time expected for intact Bio-SS-dUTP
